For test [1], the system named is cultured Plasmodium falciparum parasite strain 3D7. As to the kind of experiment: Antimalarial efficacy, parasite growth inhibition by Sybr Green staining. It is filed as cell-based. Conditions: P. falciparum strain 3D7. The protocol: Each compound was tested for the ability to inhibit growth of a standard cultured Plasmodium falciparum parasite strain 3D7. Parasite growth was monitored by staining with the DNA fluorophore Sybr Green, as previously described for the antimalarial fosmidomycin in Zhang et al., Biochemistry, (2011) 50(17), 3570-3577. Each compound was evaluated for antimalarial activity over several concentrations. Nonlinear regression analysis was used to determine the concentration of half-maximal antimalarial efficacy (EC50) for each compound.

Test [2] has as its target purified recombinant Plasmodium falciparum methylerythritol cytidyltransferase (PfIspD) enzyme (Plasmodium falciparum, UniProt Q8I273). In words: biochemical. Conditions: nonlinear regression. The protocol:
Compounds listed in Table 1 were tested for activity against purified recombinant Plasmodium falciparum methylerythritol cytidyltransferase (PfIspD) enzyme. […] Each compound was evaluated for enzymatic inhibition over several concentrations. Nonlinear regression analysis (GraphPad Prism) was used to determine the half-maximal inhibitory concentration (IC50) for each compound.

The subject of a further test is MEP pathway. As to the kind of experiment: Metabolic profiling of inhibitor-treated malaria parasites (LC-MS/MS). It is filed as cell-based. Conditions: parasite lines treated with compound, FIG. 3. From the text: A quantitative liquid chromatography-mass spectrometry method (LC-MS/MS) was developed to determine the cellular levels of metabolites in the MEP pathway. This method allows determination of whether the MEP pathway has been inhibited in malaria parasites treated with MEP pathway inhibitors of the present invention. This method has been previously used to validate the cellular metabolic effects of the known MEP pathway inhibitor fosmidomycin (Zhang et al., Biochemistry 2011).

Some results are limits rather than exact numbers.

Chain of purified recombinant Plasmodium falciparum methylerythritol cytidyltransferase (PfIspD) enzyme (Q8I273 entry or part of it): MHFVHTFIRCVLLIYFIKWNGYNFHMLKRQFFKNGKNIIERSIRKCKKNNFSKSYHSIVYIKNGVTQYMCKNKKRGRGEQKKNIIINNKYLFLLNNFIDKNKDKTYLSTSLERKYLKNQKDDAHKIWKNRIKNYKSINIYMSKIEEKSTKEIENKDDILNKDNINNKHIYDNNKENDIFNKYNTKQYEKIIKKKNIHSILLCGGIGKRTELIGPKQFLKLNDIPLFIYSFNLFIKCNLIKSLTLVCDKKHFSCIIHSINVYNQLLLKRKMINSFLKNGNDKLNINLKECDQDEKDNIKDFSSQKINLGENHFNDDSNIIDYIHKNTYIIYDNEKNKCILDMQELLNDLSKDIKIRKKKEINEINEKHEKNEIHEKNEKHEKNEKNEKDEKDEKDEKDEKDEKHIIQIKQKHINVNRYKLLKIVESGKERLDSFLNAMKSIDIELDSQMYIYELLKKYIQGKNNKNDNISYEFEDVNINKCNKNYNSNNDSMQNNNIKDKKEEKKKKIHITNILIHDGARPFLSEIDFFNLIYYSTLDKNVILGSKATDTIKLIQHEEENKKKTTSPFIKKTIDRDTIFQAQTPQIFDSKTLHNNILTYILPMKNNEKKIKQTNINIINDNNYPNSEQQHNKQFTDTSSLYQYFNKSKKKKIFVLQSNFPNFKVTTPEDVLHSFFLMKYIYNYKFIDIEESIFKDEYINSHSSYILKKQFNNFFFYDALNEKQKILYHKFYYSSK

For orientation: EC50 means the concentration needed to bring the measured effect to its halfway point. The low end stands for greater potency, the high end for weaker potency. Broadly, the IC50 is the concentration needed to halve the response being measured. `O=c1c2ccccc2sn1-c1cccc(-c2ccc(C(F)(F)F)cc2)c1` [Compound 44, 2-(4′-(trifluoromethyl)-[1,1′biphenyl]-3-yl)benzo[d]isothiazol-3(2H)-one] registered an EC50 in test [1] of 450 nM. The half-inhibitory concentration (IC50) in test [2] is 310 nM.
In the same order, the values of `O=C(O)c1cccc(-n2sc3ccccc3c2=O)c1` [Compound 46, 3-(3-oxobenzo[d]isothiazol-2(3H)-yl)benzoic acid] are above 200000 nM and 480 nM.
In test [1], `Cc1ccc(-n2sc3ccccc3c2=O)cc1S(=O)(=O)N1CCOCC1` [Compound 3, 1,2-benzisothiazol-3(2H)-one,2-[4-methyl-3-(4-morpholinylsulfonyl)phenyl]] registered a concentration for a half-maximal effect (EC50) of 4960 nM. Besides, the concentration for half-maximal inhibition (IC50) in test [2] came out at 506 nM.
On the same counts, the results for `O=c1c2ccccc2sn1-c1cc(S(=O)(=O)N2CCC(F)CC2)ccc1O` [Compound 38, 2-(5-((4-fluoropiperidin-1-yl)sulfonyl)-2-hydroxyphenyl)benzo[d]isothiazol-3(2H)-one] are 10100 nM and 13200 nM.
On to `COC(=O)c1cccc(-n2sc3ccccc3c2=O)c1` [Compound 45, Methyl-3-(3-oxobenzo[d]isothiazol-2(3H)-yl)benzoate], for which the EC50 in test [1] came to 11700 nM. The 50% inhibitory concentration (IC50) in test [2] worked out at 150 nM.
`COc1ccc(S(=O)(=O)N2CCOCC2)cc1-n1sc2ccccc2c1=O` [Compound 24, 2-(2-methoxy-5-(morpholinosulfonyl)phenyl)benzo[d]isothiazol-3(2H)-one] registered an EC50 in test [1] of 8610 nM. Moreover, the half-inhibitory concentration (IC50) in test [2] was found to be 1080 nM.
In test [1], `COc1ccc(S(=O)(=O)N2CCCCC2)cc1-n1sc2ccccc2c1=O` [Compound 25, 2-(2-methoxy-5-(piperidin-1-ylsulfonyl)phenyl)benzo[d]isothiazol-3(2H)-one] yielded an EC50 of 14300 nM. The IC50 in test [2] was 809 nM.
In the same order, the values of `O=c1c2ccccc2sn1Cc1ccc(Cl)cc1` [Compound 49, 2-(4-chlorobenzyl)benzo[d]isothiazol-2(3H)-one] are 17900 nM and 620 nM.
On the same counts, the results for `O=c1c2ccccc2sn1-c1ccccn1` [Compound 47, 2-(pyridin-2-yl)benzo[d]isothiazol-2(3H)-one] are 70000 nM and 170 nM.
In the same order, the values of `CSc1ccccc1C(=O)Nc1cccc(S(=O)(=O)N2CCOCC2)c1` [Compound 11, 2-(methylthio)-(N-((3-morpholinosulfonyl)phenyl)benzamide)] are 82600 nM and above 200000 nM.
In test [1], `O=c1c2ccccc2sn1-c1ccc(S(=O)(=O)N2CCOCC2)cc1` [Compound 4, 1,2-benzisothiazol-3(2H)-one,2-[4-(4-morpholinylsulfonyl)phenyl]] came in with a concentration for a half-maximal effect (EC50) of 20800 nM. The IC50 in test [2] was 30900 nM.
Consider `O=c1c2ccccc2sn1-c1cc(S(=O)(=O)N2CCCOCC2)ccc1O` [Compound 40, 2-(5-((1,4-oxazepan-4-yl)sulfonyl)-2-hydroxyphenyl)benzo[d]isothiazol-3(2H)-one], for which a half-maximal effect in test [1] (EC50) was put at 14600 nM. Also, the IC50 in test [2] turned out to be 1950 nM.
In the same order, the values of `O=c1c2ccccc2sn1-c1cccc(S(=O)(=O)N2CCOCC2)c1` [Compound 10, 2-(3-morpholinosulfonyl)phenylbenzo[d]isothiazol-3(2H)-one] are 7400 nM and 656 nM.
In the case of `O=c1[nH]sc2ncccc12` [Compound 50, Isothiazolo[5,4-b]pyridin-3(2H)-one], in test [1], a half-maximal response (EC50) required 160000 nM. Further, the 50% inhibitory concentration (IC50) in test [2] was 56200 nM.
In the case of `COc1ccc(S(=O)(=O)N2CCN(C)CC2)cc1-n1sc2ccccc2c1=O` [Compound 28, 2-(2-methoxy-5-((4-methylpiperazin-1-yl)sulfonyl)phenyl)benzo[d]isothiazol-3(2H)-one], the EC50 in test [1] was 2470 nM. In test [2], the IC50 turned out to be 1950 nM.
The compound `COc1ccc(-c2cccc(-n3sc4ccccc4c3=O)c2)cc1` [Compound 41, 2-(4′-methoxy-[1,1′biphenyl]-3-yl)benzo[d]isothiazol-3(2H)-one] had a concentration giving a half-maximal response (EC50) in test [1] of 770 nM. In addition, in the test with MEP pathway, the “cellular level of downstream MEP pathway metabolite CDP-ME” value is given as “significantly decreased” and the “cellular level of downstream MEP pathway metabolite cMEPP” value is “significantly decreased”.
`COc1ccc(S(=O)(=O)N2CCCOCC2)cc1-n1sc2ccccc2c1=O` [Compound 27, 2-(5-((1,4-oxazepan-4-yl)sulfonyl)-2-methoxyphenyl)benzo[d]isothiazol-3(2H)-one] came in with an EC50 in test [1] of 9100 nM. Further, the 50% inhibitory concentration (IC50) in test [2] stood at 542 nM.
On the same counts, the results for `O=c1c2ccccc2sn1-c1cc(S(=O)(=O)N2CCOCC2)ccc1O` [Compound 37, 2-(2-hydroxy-5-(morpholinosulfonyl)phenyl)benzo[d]isothiazol-3(2H)-one] are 7590 nM and 710 nM.
As for `COc1ccc(Cn2sc3ccccc3c2=O)cc1` [Compound 51, 2-(4-methoxybenzyl)benzo[d]isothiazol-2(3H)-one], the EC50 in test [1] came out at 67600 nM. Also, in test [2], the concentration for half-maximal inhibition (IC50) is 1340 nM.
As to `O=c1c2ccccc2sn1Cc1ccccc1` [Compound 48, 2-benzylbenzo[d]isothiazol-2(3H)-one], the IC50 in test [2] was 2430 nM.
For the compound `O=c1c2ccccc2sn1-c1cccc(-c2ccsc2)c1` [Compound 42, 2-(3-(thiophen-3-yl)phenyl)benzo[d]isothiazol-3(2H)-one], the concentration for a half-maximal effect (EC50) in test [1] turned out to be 2880 nM. Moreover, the IC50 in test [2] was 290 nM.
On the same counts, the results for `O=c1c2ccccc2sn1-c1cccc(-c2ccc(Cl)cc2)c1` [Compound 43, 2-(4′-chloro-[1,1′biphenyl]-3-yl)benzo[d]isothiazol-3(2H)-one] are 610 nM and 160 nM.
On to `O=c1c2cccnc2sn1Cc1ccccc1` [Compound 52, 2-benzylisothiazolo[5,4-b]pyridin-3(2H)-one], for which the IC50 in test [2] is 1520 nM.
In test [1], `O=c1c2ccccc2sn1-c1cc(S(=O)(=O)N2CCCCC2)ccc1O` [Compound 39, 2-(2-hydroxy-5-(piperidin-1-ylsulfonyl)phenyl)benzo[d]isothiazol-3(2H)-one] showed an EC50 of 9210 nM. The IC50 in test [2] came out at 5390 nM.
In turn, `COc1ccc(S(=O)(=O)N2CCC(F)CC2)cc1-n1sc2ccccc2c1=O` [Compound 26, 2-(5-((4-fluoropiperidin-1-yl)sulfonyl)-2-methoxyphenyl)benzo[d]isothiazol-3(2H)-one] returned an EC50 in test [1] of 6110 nM. Also, the IC50 in test [2] is 866 nM.
In the same order, the values of `O=c1c2ccccc2sn1-c1cc(S(=O)(=O)N2CCOCC2)ccc1N1CCCC1` [Compound 2, 1,2-benzisothiazol-3(2H)-one,2-[-5-(4-morpholinylsulfonyl)-2-(1-pyrrolidinyl)phenyl]] are 17100 nM and 7260 nM.
In the same order, the values of `COc1ccc(S(=O)(=O)N2CCNCC2)cc1-n1sc2ccccc2c1=O` [Compound 36, 2-(2-methoxy-5-(piperazin-1-ylsulfonyl)phenyl)benzo[d]isothiazol-3(2H)-one] are 970 nM and 1150 nM.
In the same order, the values of `Cc1nnsc1C(=O)Nc1cc(S(=O)(=O)N2CCCCC2)ccc1O` [Compound 19, N-[2-hydroxy-5-(piperidine-1-sulfonyl)phenyl]-4-methyl-1,2,3-thiadiazole-5-carboxamide] are above 200000 nM and 58900 nM.

The record behind these values is US20170136030A1, “TREATMENT OF MALARIA USING INHIBITORS OF THE ISPD ENZYME IN THE NON-MEVALONATE PATHWAY” (Washington University, priority 2014, published 2017).
